# According to patent publication US10336762B2 (priority 2017, dated 2019):
# Like-named read-outs stand apart in the source and are kept apart here.
# Tests used:
# IRAK4 enzyme = IRAK4 enzyme (Homo sapiens (Human), UniProt Q9NWZ3); experiment: biochemical; assay type: biochemical; details: IRAK4 enzyme, 500 μM ATP
# TNFα = experiment: cells; assay type: cell-based, human; details: LPS-stimulated human monocytes, read-out: EC50 TNF
# [1] = Homo sapiens, Monocyte, TNFα content
# [2] = Homo sapiens, Monocyte, TNFα by TR-FRET
# Sequence of IRAK4 enzyme (Q9NWZ3 whole entry): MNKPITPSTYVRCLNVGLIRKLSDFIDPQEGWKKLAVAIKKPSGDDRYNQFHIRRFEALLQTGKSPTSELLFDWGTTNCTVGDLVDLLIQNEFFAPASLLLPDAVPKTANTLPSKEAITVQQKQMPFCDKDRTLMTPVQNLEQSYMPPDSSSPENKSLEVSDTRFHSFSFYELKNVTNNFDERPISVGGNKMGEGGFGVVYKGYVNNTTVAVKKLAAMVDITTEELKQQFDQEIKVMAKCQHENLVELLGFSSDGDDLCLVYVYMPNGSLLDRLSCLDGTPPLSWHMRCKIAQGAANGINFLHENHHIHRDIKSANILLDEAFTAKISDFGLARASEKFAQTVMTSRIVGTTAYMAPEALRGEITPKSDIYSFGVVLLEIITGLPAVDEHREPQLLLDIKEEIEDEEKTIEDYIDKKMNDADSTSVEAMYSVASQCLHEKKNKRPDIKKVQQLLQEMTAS
Compound,IC50 (IRAK4 enzyme; TR-FRET (HTRF)),EC50 (TNFα; [1]),IC50 (IRAK4 enzyme; TR-FRET),EC50 (TNFα; [2]),EC50 (TNFα; TNFα content)
"CC(C)(O)[C@H](F)CNC(=O)c1cnc(-c2ccc3cc(C#N)cnn23)cc1N[C@H]1C[C@H](CNC(=O)C2CC2(F)F)C1 (stereo partly drawn) [Example 695, 6-(3-cyanopyrrolo[1,2-b]pyridazin-7-yl)-4-(((1R,3R)-3-(((R)-2,2-difluorocyclopropane-1-carboxamido)methyl)cyclobutyl)amino)-N-((R)-2-fluoro-3-hydroxy-3-methylbutyl)nicotinamide]",< 1 nM,15 nM,,,
"COC(=O)NC[C@H]1C[C@H](Nc2cc(-c3ccc4cccnn34)ncc2C(=O)NC[C@@H](F)C(C)(C)O)C1 [Example 818, methyl (((1R,3r)-3-((5-(((R)-2-fluoro-3-hydroxy-3-methylbutyl)carbamoyl)-2-(pyrrolo[1,2-b]pyridazin-7-yl)pyridin-4-yl)amino)cyclo-butyl)methyl)carbamate]",,,4 nM,224 nM,
"CC(C)(O)[C@H](F)CNC(=O)c1cnc(-c2ccc3cc(C#N)cnn23)cc1Nc1cnn([C@@H]2CCN(C3COC3)C2)c1 [Example 206, 6-(3-cyanopyrrolo[1,2-b]pyridazin-7-yl)-N-((R)-2-fluoro-3-hydroxy-3-methylbutyl)-4-((1-((R)-1-(oxetan-3-yl)pyrrolidin-3-yl)-1H-pyrazol-4-yl)amino)nicotinamide]",,133 nM,1 nM,,
"CC(C)(CCNC(=O)c1cnc(-c2ccc3cc(C#N)cnn23)cc1NC12CCC(O)(CC1)CC2)NC(=O)OC(C)(C)C [Example 347, tert-butyl (4-(6-(3-cyanopyrrolo[1,2-b]pyridazin-7-yl)-4-((4-hydroxybicyclo[2.2.2]octan-1-yl)amino)nicotinamido)-2-methyl-butan-2-yl)carbamate]",,45 nM,2 nM,,
"CC(C)(O)[C@H](F)CNC(=O)c1cnc(-c2ccc3cc(C#N)cnn23)cc1Nc1cncc(C2CC2)c1 [Example 222, (R)-6-(3-cyanopyrrolo[1,2-b]pyridazin-7-yl)-4-((5-cyclopropylpyridin-3-yl)amino)-N-(2-fluoro-3-hydroxy-3-methylbutyl)nicotinamide]",,151 nM,1 nM,,
"CN(C)C(=O)N1CCC(Nc2cc(-c3ccc4cc(C#N)cnn34)ncc2C(=O)NC[C@@H](F)C(C)(C)O)CC1 [Example 243, (R)-6-(3-cyanopyrrolo[1,2-b]pyridazin-7-yl)-4-((1-(dimethylcarbamoyl)piperidin-4-yl)amino)-N-(2-fluoro-3-hydroxy-3-methylbutyl)nicotinamide]",,218 nM,2 nM,,
"CN1CC(C(=O)NC[C@H]2C[C@H](Nc3cc(-c4ccc5cc(C#N)cnn45)ncc3C(=O)NC[C@@H](F)C(C)(C)O)C2)C1 [Example 795, 6-(3-cyanopyrrolo[1,2-b]pyridazin-7-yl)-N-((R)-2-fluoro-3-hydroxy-3-methylbutyl)-4-(((1r,3R)-3-((1-methylazetidine-3-carboxamido)methyl)cyclobutyl)amino) nicotinamide]",7 nM,> 10000 nM,,,
"CC(C)(O)[C@H](F)CNC(=O)c1cnc(-c2ccc3cc(C#N)cnn23)cc1NC1CC1CO (single isomer, unassigned) [Example 302]",,61 nM,1 nM,,
"CC(C)(O)[C@H](F)CNC(=O)c1cnc(-c2ccc3cc(C#N)cnn23)cc1Nc1cnc(-c2cnco2)nc1 [Example 641, (R)-6-(3-cyanopyrrolo[1,2-b]pyridazin-7-yl)-N-(2-fluoro-3-hydroxy-3-methylbutyl)-4-((2-(oxazol-5-yl)pyrimidin-5-yl)amino)nicotinamide]",< 1 nM,21 nM,,,
"CC(C)Nc1cc(-c2ccc3cc(C#N)cnn23)ncc1C(=O)NNC(=O)C(C)(C)O [Example 66, 6-(3-cyanopyrrolo[1,2-b]pyridazin-7-yl)-N′-(2-hydroxy-2-methylpropanoyl)-4-(isopropylamino) nicotinohydrazide]",,458 nM,46 nM,,
"CC(C)(O)[C@H](F)CNC(=O)c1cnc(-c2ccc3cc(C#N)cnn23)cc1Nc1ccc(Cl)cn1 [Example 586, (R)-4-((5-chloropyridin-2-yl)amino)-6-(3-cyano-pyrrolo[1,2-b]pyridazin-7-yl)-N-(2-fluoro-3-hydroxy-3-methylbutyl) nicotinamide]",1 nM,118 nM,,,
"COc1ncc(Nc2cc(-c3ccc4cc(C#N)cnn34)ncc2C(=O)NC[C@@H](F)C(C)(C)O)cn1 [Example 590, (R)-6-(3-cyanopyrrolo[1,2-b]pyridazin-7-yl)-N-(2-fluoro-3-hydroxy-3-methylbutyl)-4-((2-methoxypyrimidin-5-yl)amino)nicotinamide]",< 1 nM,38 nM,,,
"CC(=O)NC[C@@H]1CCCN1c1ccc(Nc2cc(-c3ccc4cc(C#N)cnn34)ncc2C(=O)NC[C@@H](F)C(C)(C)O)cn1 [Example 878, 4-((6-((S)-2-(acetamidomethyl)pyrrolidin-1-yl)pyridin-3-yl)amino)-6-(3-cyanopyrrolo[1,2-b]pyridazin-7-yl)-N-((R)-2-fluoro-3-hydroxy-3-methylbutyl)nicotinamide]",,,2 nM,141 nM,
"CC(C)(O)[C@H](F)CNC(=O)c1cnc(-c2ccc3cc(C#N)cnn23)cc1NCC1CC1(F)F (stereo partly drawn) [Example 137, 6-(3-cyanopyrrolo[1,2-b]pyridazin-7-yl)-4-(((2,2-difluorocyclopropyl)methyl)amino)-N-((R)-2-fluoro-3-hydroxy-3-methylbutyl)nicotinamide]",,140 nM,2 nM,,
"Cn1ccnc1CNC(=O)c1cnc(-c2ccc3cc(C#N)cnn23)cc1NC12CCC(O)(CC1)CC2 [Example 928, 6-(3-cyanopyrrolo[1,2-b]pyridazin-7-yl)-4-((4-hydroxybicyclo[2.2.2]octan-1-yl)amino)-N-((1-methyl-1H-imidazol-2-yl)methyl)nicotinamide]",,,1 nM,71 nM,
"CC(=O)NC12CC(NC(=O)c3cnc(-c4ccc5cc(C#N)cnn45)cc3NC(C)C)(C1)C2 [Example 132, N-(3-acetamidobicyclo [1.1.1]pentan-1-yl)-6-(3-cyanopyrrolo[1,2-b]pyridazin-7-yl)-4-(isopropylamino) nicotinamide]",,222 nM,5 nM,,
CC(C)(O)[C@H](F)CNC(=O)c1cnc(-c2ccc3cc(C#N)cnn23)cc1N[C@H]1C[C@H](CNC(=O)C2CCO2)C1 (stereo partly drawn) [Example 614],2 nM,156 nM,,,
"CC(C)(O)[C@H](F)CNC(=O)c1cnc(-c2ccc3cc(C#N)cnn23)cc1N[C@@H]1CC[C@H](N)C1 [Example 309, 4-(((1R,3S)-3-aminocyclopentyl)amino)-6-(3-cyanopyrrolo[1,2-b]pyridazin-7-yl)-N-((R)-2-fluoro-3-hydroxy-3-methylbutyl)nicotinamide]",,623 nM,2 nM,,
"CC(C)(O)[C@H](F)CNC(=O)c1cnc(-c2ccc3cc(C#N)cnn23)cc1Nc1nccs1 [Example 375, (R)-6-(3-cyanopyrrolo[1,2-b]pyridazin-7-yl)-N-(2-fluoro-3-hydroxy-3-methylbutyl)-4-(thiazol-2-ylamino)nicotinamide]",,110 nM,1 nM,,
"COCc1cncc(Nc2cc(-c3ccc4cc(C#N)cnn34)ncc2C(=O)NC[C@@H](F)C(C)(C)O)c1 [Example 784, (R)-6-(3-cyanopyrrolo[1,2-b]pyridazin-7-yl)-N-(2-fluoro-3-hydroxy-3-methylbutyl)-4-((5-(methoxymethyl)pyridin-3-yl)amino)nicotinamide]",< 1 nM,40 nM,,,
"CNC(=O)OC[C@H](F)CNC(=O)c1cnc(-c2ccc3cc(C#N)cnn23)cc1NC12CCC(O)(CC1)CC2 [Example 743, (R)-3-(6-(3-cyano-pyrrolo[1,2-b]pyridazin-7-yl)-4-((4-hydroxy-bicyclo[2.2.2]octan-1-yl)amino)nicotin-amido)-2-fluoropropyl methylcarbamate]",< 1 nM,54 nM,,,
"CC(C)Nc1cc(-c2ccc3cc(C#N)cnn23)ncc1C(=O)NC1CC2(CC(=O)C2)C1 [Example 152, 6-(3-cyanopyrrolo[1,2-b]pyridazin-7-yl)-4-(isopropylamino)-N-(6-oxospiro[3.3]heptan-2-yl)nicotinamide]",,191 nM,2 nM,,
"CC(C)(O)[C@H](F)CNC(=O)c1cnc(-c2ccc3cc(C#N)cnn23)cc1NC1C2CCC1CNC2 (single isomer, unassigned) [Example 27]",,175 nM,2 nM,,
"CC(C)(F)[C@H](F)CNC(=O)c1cnc(-c2ccc3cc(C#N)cnn23)cc1N[C@H]1CCC[C@@H](O)C1 [Example 530, 6-(3-cyanopyrrolo[1,2-b]pyridazin-7-yl)-N-((R)-2,3-difluoro-3-methylbutyl)-4-(((1S,3R)-3-hydroxy-cyclohexyl)amino)nicotinamide]",< 1 nM,10 nM,,,
"CC(C)(O)[C@H](F)CNC(=O)c1cnc(-c2ccc3cc(C#N)cnn23)cc1NC1CC2CCC(C1)N2S(C)(=O)=O (stereo partly drawn) [Example 15, 6-(3-cyanopyrrolo[1,2-b]pyridazin-7-yl)-N-((R)-2-fluoro-3-hydroxy-3-methylbutyl)-4-(((1R,3r,5S)-8-(methylsulfonyl)-8-azabicyclo[3.2.1]octan-3-yl)amino)nicotinamide]",,,4 nM,,302 nM
"CC(C)Nc1cc(-c2ccc3cc(C#N)cnn23)ncc1C(=O)NC1COC1 [Example 7, 6-(3-cyanopyrrolo[1,2-b]pyridazin-7-yl)-4-(isopropylamino)-N-(oxetan-3-yl)nicotinamide]",,442 nM,5 nM,,
"CC(C)(O)[C@H](F)CNC(=O)c1cnc(-c2ccc3cc(C#N)cnn23)cc1NC1CC2(CCC2)C1 [Example 99, (R)-6-(3-cyanopyrrolo[1,2-b]pyridazin-7-yl)-N-(2-fluoro-3-hydroxy-3-methylbutyl)-4-(spiro[3.3]heptan-2-ylamino)nicotinamide]",,130 nM,1 nM,,
